The text below walks through data of ChEMBL document CHEMBL1201862, “PubChem BioAssay data set” (2004).

Among the test systems are NCI-H226; HL-60; HOP-92; HCC 2998; U-251; RPMI-8226; SNB-19; UACC-62; ACHN; EKVX; KM12; NCI/ADR-RES; NCI-H522; MCF7; OVCAR-3; OVCAR-4; HCT-116; CCRF-CEM; COLO 205; SR.
Holding throughout (experiment): NCI anticancer screen, dose series, 48 h

The structures appear in SMILES notation.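 Compound exposure: 48 hours, 5 concentrations, 96-well plates. At the GI50, growth is halved.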 Calls of active or inactive are those of the source. Cut-off read from the data, not from the text of the source: active = GI50 up to about 1.1 µM and inactive = higher. Where a SMILES comes first, the peptide text is derived from it. [ ]: non-standard residue; d: D form. The star is where a group is joined. ξ: configuration not given here. X38 = O=C(OCc1ccccc1)[C@@H]1CCC[C@H]1N*; Fmoc = O=C(OCC1c2ccccc2-c2ccccc21)*; ξW = NC(Cc1c[nH]c2ccccc12)C(=O)O; ξF = NC(Cc1ccccc1)C(=O)O; Boc = CC(C)(C)OC(=O)*; ξK = NCCCCC(N)C(=O)O; ξT = CC(O)C(N)C(=O)O; tBu = CC(C)(C)*; CH2Cl = ClC*

`O=c1cc(-c2ccccc2)[nH]c2ccc(N3CCOCC3)cc12`: the GI50 in the assay with NCI-H226 is 0.0319 µM (active); in the assay with HL-60, 0.0151 µM (active); with HOP-92 it was 0.0622 µM (active); in the assay on HCC 2998 it was 0.0468 µM (active); with U-251 it was 0.0185 µM (active); in the assay with RPMI-8226, 0.065 µM (active). In addition, the GI50 in the assay with SNB-19 is 0.0434 µM (active); in the assay on UACC-62, < 0.0268 µM (active); in the assay on ACHN, 0.0611 µM (active); in the assay on EKVX it was 53 µM (inactive); in the assay on KM12, < 0.0171 µM (active); in the assay with NCI/ADR-RES, 0.0435 µM (active). The GI50 in the assay with NCI-H522 was 0.0173 µM (active); with MCF7 it was 0.0327 µM (active); in the assay on OVCAR-3 it was 0.0148 µM (active); in the assay with OVCAR-4, 20.1 µM (inactive); in the assay on HCT-116, < 0.0167 µM (active); in the assay on CCRF-CEM it was 0.0144 µM (active). Besides, the GI50 was 0.0182 µM (active) in the assay on COLO 205 and < 0.017 µM (active) in the assay on SR.

As to `C=CCn1c(=O)c2ccccc2[n+]2c(-c3cccc([N+](=O)[O-])c3)csc12`, the GI50 was 12.5 µM (inactive) with NCI-H226; 25.9 µM (inactive) in the assay on HL-60; 56.2 µM (inactive) in the assay on HOP-92; > 100 µM (inactive) in the assay with HCC 2998; 77.4 µM (inactive) with U-251; 30.7 µM (inactive) in the assay with RPMI-8226. Besides, the GI50 with SNB-19 is > 100 µM (inactive); with UACC-62 it was 31.6 µM (inactive); in the assay with ACHN it was > 100 µM (inactive); in the assay with EKVX, 33.7 µM (inactive); in the assay with KM12 it was 45.4 µM (inactive); in the assay on NCI/ADR-RES, 17.1 µM (inactive). Moreover, the GI50 is 36.1 µM (inactive) in the assay on NCI-H522; 42.9 µM (inactive) with MCF7; 33.9 µM (inactive) in the assay with OVCAR-3; 64.4 µM (inactive) in the assay on OVCAR-4; 38.9 µM (inactive) in the assay with HCT-116; 27.5 µM (inactive) in the assay with CCRF-CEM. Further, the GI50 in the assay on COLO 205 was 24.8 µM (inactive); in the assay with SR, 17 µM (inactive).

`CSC(=S)Nc1cc(C)cc(C)n1`: the GI50 in the assay with NCI-H226, in the assay on HL-60, in the assay on HOP-92, with HCC 2998, in the assay with U-251 and in the assay on RPMI-8226 was > 31.6 µM (inactive) throughout. Further, the GI50 with SNB-19, in the assay with UACC-62, with ACHN, with EKVX, with KM12 and in the assay with NCI/ADR-RES was > 31.6 µM (inactive) throughout. The GI50 in the assay on NCI-H522 was 18.7 µM (inactive); with MCF7 it was > 31.6 µM (inactive); with OVCAR-3 it was > 31.6 µM (inactive); with OVCAR-4 it was > 31.6 µM (inactive); in the assay on HCT-116, > 10 µM (inactive); in the assay with CCRF-CEM it was > 31.6 µM (inactive). For the same compound, the figures for the GI50 with COLO 205 and with SR were > 31.6 µM (inactive) and > 10 µM (inactive), respectively.

In the case of `O=C(O)c1cc(C(=O)O)nc(C(=O)O)c1`, the GI50 in the assay with NCI-H226, with HL-60, with HOP-92, with HCC 2998, in the assay on U-251 and in the assay with RPMI-8226 was > 100 µM (inactive) throughout. Moreover, the GI50 in the assay with SNB-19, in the assay with UACC-62, in the assay with ACHN, in the assay on EKVX, in the assay on KM12 and in the assay with NCI/ADR-RES was > 100 µM (inactive) throughout. Also, the GI50 in the assay on NCI-H522 was > 100 µM (inactive); in the assay on MCF7, > 100 µM (inactive); in the assay on OVCAR-3 it was > 100 µM (inactive); in the assay on OVCAR-4, > 100 µM (inactive); in the assay with HCT-116, > 100 µM (inactive); with CCRF-CEM it was 42.7 µM (inactive). Also, the GI50 with COLO 205 and with SR was > 100 µM (inactive) throughout.

On to `CC(=O)NC(CC(C)C)C(=O)NC(Cc1ccccc1)C(=O)CCl` (stereo not drawn) (Ac-Leu-Phe-CH2Cl; configuration not given here), for which the GI50 with NCI-H226 is 21.6 µM (inactive); in the assay on HL-60, 2.21 µM (inactive); with HOP-92, 5.78 µM (inactive); in the assay with HCC 2998, 14.9 µM (inactive); in the assay with U-251, 16.6 µM (inactive); with RPMI-8226 it was 2.69 µM (inactive). Also, the GI50 is 20 µM (inactive) with SNB-19; 11.7 µM (inactive) in the assay with UACC-62; 11.1 µM (inactive) in the assay on ACHN; 21.1 µM (inactive) in the assay on EKVX; 18.7 µM (inactive) with KM12; 10.9 µM (inactive) in the assay with NCI/ADR-RES. Also, the GI50 with NCI-H522 was 2.51 µM (inactive); in the assay with MCF7, 5.04 µM (inactive); in the assay with OVCAR-3 it was 13.2 µM (inactive); with OVCAR-4, 18.3 µM (inactive); with HCT-116 it was 5.22 µM (inactive); with CCRF-CEM, 1.32 µM (inactive). Besides, the GI50 in the assay with COLO 205 is 5.43 µM (inactive); in the assay on SR, 2.55 µM (inactive).

In the case of `Cn1c2ccccc2c(=O)c2c(O)cc3c(c21)C=CC1(CCCC1)O3`, the GI50 with NCI-H226 is > 100 µM (inactive); in the assay on HL-60, > 100 µM (inactive); in the assay with HOP-92, 25.7 µM (inactive); with HCC 2998, > 100 µM (inactive); in the assay on U-251, > 100 µM (inactive); in the assay on RPMI-8226 it was > 100 µM (inactive). In addition, the GI50 is > 100 µM (inactive) in the assay on SNB-19; > 100 µM (inactive) with UACC-62; > 100 µM (inactive) with ACHN; 20.8 µM (inactive) with EKVX; > 100 µM (inactive) in the assay with KM12; > 100 µM (inactive) in the assay on NCI/ADR-RES. The GI50 with NCI-H522 is > 100 µM (inactive); in the assay with MCF7 it was > 100 µM (inactive); in the assay on OVCAR-3, > 100 µM (inactive); in the assay with OVCAR-4, 41.7 µM (inactive); with HCT-116, > 100 µM (inactive); with CCRF-CEM, > 100 µM (inactive). Moreover, the GI50 is > 100 µM (inactive) in the assay on COLO 205 and 37.3 µM (inactive) with SR.

Consider `COc1ccc(N2C(=O)CSC2c2cc(OC)c(OC)c(OC)c2)cc1` (centres undefined), for which the GI50 with NCI-H226 is 62.7 µM (inactive); in the assay with HL-60, 17.5 µM (inactive); with HOP-92, 54.6 µM (inactive); in the assay with HCC 2998 it was 16.7 µM (inactive); with U-251, 18.9 µM (inactive); in the assay with RPMI-8226, 27.5 µM (inactive). Moreover, the GI50 was 23.2 µM (inactive) in the assay on SNB-19; 4.71 µM (inactive) in the assay on UACC-62; 20.7 µM (inactive) in the assay with ACHN; 28.4 µM (inactive) in the assay on EKVX; 15.1 µM (inactive) in the assay with KM12; 22.2 µM (inactive) with NCI/ADR-RES. Besides, the GI50 in the assay on NCI-H522 is 14.1 µM (inactive); with MCF7, 37.6 µM (inactive); in the assay on OVCAR-3, 25.5 µM (inactive); in the assay with OVCAR-4 it was 42.5 µM (inactive); in the assay on HCT-116 it was 16.8 µM (inactive); in the assay on CCRF-CEM it was 7.23 µM (inactive). Further, the GI50 was 25.4 µM (inactive) in the assay with COLO 205 and 5.41 µM (inactive) in the assay on SR.

`CC(C)C1OC(/C=C/c2ccccc2)OCC1(C)C` (centres undefined): the GI50 in the assay with NCI-H226 is 23.5 µM (inactive); in the assay with HL-60 it was 19.9 µM (inactive); in the assay with HOP-92, 17.9 µM (inactive); in the assay on HCC 2998, 19.6 µM (inactive); in the assay on U-251 it was 24.9 µM (inactive); in the assay with RPMI-8226 it was 17.8 µM (inactive). The GI50 in the assay with SNB-19 was 41.4 µM (inactive); in the assay on UACC-62, 45.7 µM (inactive); with ACHN, 32.2 µM (inactive); in the assay with EKVX, 27.5 µM (inactive); in the assay on KM12, 31 µM (inactive); in the assay on NCI/ADR-RES, 41.6 µM (inactive). Moreover, the GI50 was 13.8 µM (inactive) in the assay on NCI-H522; 31.8 µM (inactive) in the assay with MCF7; 20.4 µM (inactive) with OVCAR-3; 33.6 µM (inactive) in the assay on OVCAR-4; 25.4 µM (inactive) in the assay with HCT-116; 20.9 µM (inactive) in the assay with CCRF-CEM. The GI50 in the assay on COLO 205 was 16.6 µM (inactive); with SR, 30.1 µM (inactive).

Turning to `Cc1cc(=O)n2c3c(c4c(cc13)c(CN(C)C)cc(=O)n4C)OC2`, the GI50 was 9.04 µM (inactive) in the assay with NCI-H226; 22.2 µM (inactive) in the assay on HL-60; 28.5 µM (inactive) in the assay with HOP-92; 6.93 µM (inactive) with HCC 2998; 32.4 µM (inactive) in the assay on U-251; 25.2 µM (inactive) in the assay on RPMI-8226. The GI50 with SNB-19 was 15.8 µM (inactive); with UACC-62 it was 12.6 µM (inactive); in the assay with ACHN, 4.97 µM (inactive); in the assay on EKVX, 20.6 µM (inactive); in the assay on KM12 it was 14.7 µM (inactive); with NCI/ADR-RES, 15 µM (inactive). The GI50 in the assay on NCI-H522 is 0.9 µM (active); in the assay on MCF7, 6.47 µM (inactive); in the assay with OVCAR-3 it was 18.6 µM (inactive); with OVCAR-4 it was 9.27 µM (inactive); in the assay on HCT-116, 5.2 µM (inactive); in the assay with CCRF-CEM it was > 24.8 µM (inactive). Also, the results for the GI50 in the assay with COLO 205 and in the assay with SR were 11.7 µM (inactive) and > 25.6 µM (inactive), respectively.

Consider `CC(OC(C)(C)C)C(NC(=O)C(CCCCNC(=O)OC(C)(C)C)NC(=O)C(Cc1c[nH]c2ccccc12)NC(=O)C(Cc1ccccc1)NC(=O)OCC1c2ccccc2-c2ccccc21)C(=O)NC(Cc1ccccc1)C(=O)N[C@@H]1CCC[C@H]1C(=O)OCc1ccccc1` (some centres undefined) (Fmoc-[ξF][ξW][ξK](Boc)[ξT](tBu)[ξF]-X38), for which the GI50 in the assay with NCI-H226, in the assay on HL-60, with HOP-92, in the assay with HCC 2998, in the assay with U-251 and with RPMI-8226 was > 100 µM (inactive) each time. Further, the GI50 in the assay with UACC-62, in the assay on ACHN, with EKVX, in the assay with KM12, in the assay on NCI/ADR-RES and in the assay with NCI-H522 was > 100 µM (inactive) throughout. The GI50 in the assay on MCF7, in the assay on OVCAR-3, in the assay with OVCAR-4, in the assay on HCT-116, with CCRF-CEM and in the assay on COLO 205 was > 100 µM (inactive) throughout. Further, in the assay on SR, the GI50 was > 100 µM (inactive).
